No end group written: not given here.
Assays:
[1] = test system: E. coli ATCC 25922; type: cell-based, Escherichia coli; conditions: ATCC 25922
Procedure: (§1) To gain additional insight, we also compared the effects of physiological saline and human serum on the antibacterial activities of WW291-WW298 using both E. coli and S. aureus (Table 3). In our assays, salts and serum were present during the entire course of the experiment. […] Thus, WW295 and WW298 stand out in terms of activity robustness (bold in Table 3).
(§2) The antibacterial activity of peptides was evaluated using a standard broth microdilution protocol with minor modifications as previously described. In brief, logarithmic phase bacterial cultures (i.e., optical density at 600 nm ≈ 0.5) were diluted to OD600~0.001 and partitioned into a 96-well polystyrene microplate at 90 μL per well. After treatment with 10 μL of peptide solutions two-fold diluted to various concentrations, microplates were incubated at 37 °C overnight and read on a ChroMate 4300 Microplate Reader at 630 nm (GMI, Ramsey, MN). […] Minimal bactericidal concentration (MBC) was determined by plating the clear wells at MIC or above. The peptide concentration that caused no bacterial growth on the petri dish is MBC.

[2] = test system: S. aureus Mu50; type: cell-based, Staphylococcus aureus; conditions: Mu50
Procedure: (§3) The antimicrobial activity spectrum of the WW peptide series was performed on a panel of Gram-positive and -negative bacteria using the standard broth micro-dilution method with minor modifications as described. […] There was a small change in the case of Pseudomonas aeruginosa and Acinetobacter baumannii up to two-fold. Four-fold changes were found for Staphylococcus aureus, Staphylococcus epidermidis, Escherichia coli, and Bacillus subtilis. However, we observed over eight-fold MIC changes for Klebsiella pneumoniae and vancomycin-resistant enterococcus (VRE). […] We also observed more than eight-fold changes in minimal bacterial killing concentrations.
as §2

[3] = test system: E. coli K12; type: cell-based, Escherichia coli; conditions: K12
Procedure: as §3, §2

[4] = test system: S. aureus USA300 LAC; type: cell-based, Staphylococcus aureus; conditions: USA300
Procedure: as §1, §2

[5] = test system: chicken red blood cells; experiment: Hemolytic assay; type: cell-based
Procedure: (§4) Hemolytic assays of peptides were performed as previously described. Briefly, human red blood cells (hRBCs) obtained from UNMC Blood Bank, or chicken or porcine blood cells purchased from commercial sources as previously described, were washed three times with phosphate buffer saline (PBS) and diluted to a 2% solution (V/v). After peptide treatment, incubation at 37 °C for one hour, and centrifugation at 13,000 rpm, aliquots of the supernatant were carefully transferred to a fresh 96-well microplate. The amount of hemoglobin released was measured at 545 nm. The percent lysis was calculated by assuming 100% release when human blood cells were treated with 2% Triton X-100, and 0% release when incubated with PBS buffer. The peptide concentration that caused 50% lysis of hRBCs is defined as HC50.

[6] = test system: Pig RBC; experiment: Hemolytic assay; type: cell-based
Procedure: as §4

[7] = test system: human red blood cells; experiment: Hemolytic assay; type: cell-based; conditions: red cells of human
Procedure: as §4

[8] = test system: E. faecium VRE; type: cell-based; conditions: VRE
Procedure: as §3, §2

[9] = test system: P. aeruginosa PAO1; type: cell-based, Pseudomonas aeruginosa; conditions: PAO1
Procedure: as §3, §2

[10] = test system: A. baumannii B28-16; type: cell-based, Acinetobacter baumannii; conditions: B28-16
Procedure: as §3, §2

[11] = test system: B. subtilis 167; type: cell-based, Bacillus subtilis; conditions: 167
Procedure: as §3, §2

[12] = test system: PMA differentiated THP-1 cells; experiment: MTS cytotoxicity assay; type: cell-based; conditions: PMA differentiated THP-1, serum free media, one hour treatment
Procedure: (§5) Peptides were assayed for potential in vitro toxicity against human keratinocytes (HaCaT) and THP-1 cells as previously described. THP-1 monocytes were differentiated into macrophages by adding 30 ng/mL of phorbol 12-myristate 13-acetate (PMA; Sigma-Aldrich) to RPMI 1640 supplemented with 10% fetal calf serum culture (FCS) medium for 16 h. Briefly, cells were seeded at a density of 3 × 10^4 per well in a tissue culture 96-well plate in DMEM/RPMI supplemented with 10% fetal bovine serum (FBS), and incubated at 37 °C in a 5% CO2 atmosphere for 24 h. African green monkey kidney Vero E6 cells were cultivated in EMEM in the same manner. Before antimicrobial treatment, wells were replaced with serum free media and treated with peptides at different concentrations for one hour. After incubation, the cells were washed and incubated with 100 μL of DMEM media containing 20 μL of 3-(4,5-dimethylthiazol-2-yl)-5-(3-carboxymethoxyphenyl)-2-(4-sulfophenyl)-2H-tetrazolium (MTS) reagent for two hours at 37 °C. The treatment time was one hour in the case of Vero E6 cells. Absorbance readings at 492 nm were taken using a ChroMate microplate reader (GMI, Ramsey, MN, USA).

[13] = test system: human keratinocytes (HaCaT); experiment: MTS cytotoxicity assay; type: cell-based; conditions: serum free media, one hour treatment
Procedure: as §5

[14] = test system: monkey kidney Vero E6 cells; type: cell-based
Procedure: as §5, with “The treatment time was one hour in the case of Vero E6 cells.” left out

[15] = test system: S. aureus USA300; type: cell-based, Staphylococcus aureus; conditions: USA300
Procedure: as §2

Row | Sequence | MIC, +150 mM NaCl [1] | MIC, +10% Human Serum [1] | MIC, TSB [1] | Minimal Inhibitory Concentration (MIC), SA [2] | Minimal Inhibitory Concentration (MIC), EC [3] | MIC, +150 mM NaCl [4] | MIC, TSB [4] | Chicken RBC, concentration that caused 50% red blood cell lysis (HC50) [5] | Pig RBC, concentration that caused 50% red blood cell lysis (HC50) [6] | Human RBC, concentration that caused 50% red blood cell lysis (HC50) [7] | Minimal Inhibitory Concentration (MIC), VRE [8] | Minimal Inhibitory Concentration (MIC), PA [9] | Minimal Inhibitory Concentration (MIC), AB [10] | Minimal Inhibitory Concentration (MIC), BS [11] | THP-1, concentration that caused 50% cell death (LC50) [12] | HaCaT, concentration that caused 50% cell death (LC50) [13] | Vero Cells, concentration that caused 50% cell death (LC50) [14] | MBC, USA300 [15] | MIC, +10% Human Serum [4]
1 | KIWWWWLR [WW296] | 25 µM | >25 µM | 3.1 to 6.2 µM | 3.1 µM | 6.2 to 12.5 µM | 1.6 µM | 1.6 µM | 50 µM | >100 µM | 103 µM | 25 µM | 50 µM | 12.5 µM | 12.5 µM | 35 µM | 100 µM | >100 µM | 6.2 µM | 
2 | WLRKIWWW [WW293] | >25 µM | >25 µM | 12.5 µM | 12.5 µM | 12.5 to 25 µM | 6.2 µM | 6.2 µM | >100 µM | >100 µM | 224 µM | 50 µM | 50 µM | 12.5 µM | 12.5 µM | >100 µM | >100 µM | >100 µM | 25 µM | >25 µM

Source: PMC7600788, “Sequence Permutation Generates Peptides with Different Antimicrobial and Antibiofilm Activities” (Pharmaceuticals, 2020)
